Tests used:
WT1 mRNA [1] = conditions: mWT1-C1498, compared with DAC treatment; cited from earlier work
[2] = tested on: murine WT1-transfected C1498 (mWT1-C1498); conditions: increasing doses; cited from earlier work
WT1 mRNA [3] = conditions: human MIAPaCa2 PC cells; cited from earlier work
WT1 mRNA [4] = conditions: GEM-treated MIAPaCa2-bearing SCID mice; cited from earlier work
allogeneic T cells [5] = assay: Mixed Lymphocyte Reaction, dendritic cells added to allogeneic T cells, tritiated thymidine; type: cell-based; conditions: cannabidiol 1 and 2 micromolar added to dendritic cells; 40,000 allogeneic T cells; 96 hours culture; FIG. 1
Procedure: (§1) Dendritic cells where added to allogeneic T cells in 96 well plates, wherein allogeneic T cells where added at 40,000 cells per plate and the indicated number of dendritic cells added. Culture was performed for 96 hours with tritiated thymidine added at the last 12 hours of culture at a concentration of 1 microcurie per well. Black bars indicate no cannabidiol added to dendritic cells, striped bars indicate 1 micro Molar and white indicate 2 micromolar. […] Results are shown in graph, FIG. 1.

allogeneic T cells [6] = assay: Mixed Lymphocyte Reaction with dendritic cells silenced for NR2F6; type: cell-based; conditions: increased amounts of cannabidiol added to dendritic cells silenced for NR2F6; FIG. 2
Procedure: as §1
MLR was performed as in example 1. All cells where silenced for NR2F6. An increase in allostimulatory activity was observed. Results are shown in graph, FIG. 2.

For Nc1ncn([C@@H]2O[C@H](CO)[C@@H](O)[C@H]2O)c(=O)n1 [AZA, azacitidine], the “up-regulation of WT1 mRNA” value (WT1 mRNA [1]) is listed as “induced up-regulation of mRNA, but not to the same degree as with DAC treatment” and the “number of viable cells” value [2] is listed as “decreased the number of viable cells in a dose- or time-dependent manner”.
In the case of Nc1ccn([C@@H]2O[C@H](CO)[C@@H](O)C2(F)F)c(=O)n1 [GEM, gemcitabine], the “WT1 mRNA levels” value (WT1 mRNA [3]) is given as “enhanced WT1 mRNA levels” and the “WT1 mRNA in tumor tissue” value (WT1 mRNA [4]) is given as “increase in WT1 mRNA”.
With C=C(C)[C@@H]1CCC(C)=C[C@H]1c1c(O)cc(CCCCC)cc1O [cannabidiol] the “T cell activation in Mixed Lymphocyte Reaction” value (allogeneic T cells [5]) was “dose dependent suppression of T cell activation” and the “allostimulatory activity in MLR” value (allogeneic T cells [6]) was “dose dependent increase in allostimulatory activity”.
